Data published in US9096591B2, “Tetracyclic compounds” (Medivation Technologies, Inc., priority 2007, dated 2015).

Experiments:
[1] = tested on: mice; assay: recognition test of new location of a known object (spatial memory); assay type: in vivo; details: for overall effect on memory (in words): doses 0.05-1 mg/kg
[2] = tested on: rat brain mitochondria; assay: Ca2+-induced swelling of mitochondria (MPT pore opening); assay type: biochemical, Wistar rats; details: rat brain mitochondria; for A540 increase in mitochondrial suspension after addition of 100 μM of compound: 100 μM compound; for IC50: read-out: IC50, Ca2+-induced (25-50 μM) swelling of brain mitochondria, Ca2+ 25-50 μM
Experimental: Rat liver and brain mitochondria were prepared from male Wistar rats. The rats were euthanized in a CO2 chamber followed by decapitation the procedure being in compliance with the Guidelines for Animal Experiments at IPAC RAS. […]
Brain mitochondria were isolated from the pooled forebrains of two rats. The modified method of Sims was used to isolate and purify brain mitochondria in a Percoll gradient. The brain was homogenized in “buffer A” (225 mM mannitol, 75 mM sucrose, 5 mM HEPES, 1 mM EGTA, pH 7.4 [KOH]) and centrifuged for 10 min at 1300 g. The supernatant was centrifuged for 10 min at 10000 g, and then the pellet was suspended in 15% Percoll and layered on a discontinuous gradient consisting of 40 and 23% Percoll, respectively, which was then centrifuged for 10 min at 30000 g without using brakes. The mitochondria were collected from the interface of the lower two layers and after resuspension in “buffer A”, the suspension was centrifuged at 16600 g for 10 min, then the pellet was resuspended in “buffer A”, BSA (10 mg/mL) was added to bind free fatty acids; and the suspensions was centrifuged again at 6300 g for 10 min. Following centrifugation the pelleted mitochondria were re-suspended in isolation medium without EGTA to achieve a protein concentration of 15-20 mg/ml.
Mitochondrial swelling caused by influx of solutes through open PT pores results in an increase in light transmission (i.e., a reduced turbidity). This turbidity change offers a convenient and frequently used assay of the MPT by measurement of absorbance in mitochondrial suspensions. In the present study, the MPT induced by Ca^2+ and inorganic phosphate (Ca/Pi) was monitored by absorbance changes at 540 nm in a cuvette in a Beckman DU 640 spectrophotometer in 1 ml of buffer A plus 0.8 μM rotenone, 5 mM succinate, 1 mM KH2PO4 and 0.5 mg or 0.2 mg protein of isolated liver or brain mitochondria, accordingly. Reaction was started by the addition of triggering agent (Ca^2+). Pre-treatment and reaction were performed at 30° C. Swelling rate was quantified as ΔA540/min/mg, calculated, in all cases, from a tangent to the steepest portion of the plot of A540 versus time.
Ca^2+-induced Swelling of mitochondria was used as the primary screening test for compounds influence on MPT pore opening. […] But the inhibition of swelling may be connected not only with direct inhibition of MPT pore opening but also with the impairment of respiratory function of mitochondria and with the compounds action on calcium transport into mitochondria. For the primary estimation of these possibilities the mitochondrial membrane potential and calcium retention capacity of mitochondria were measured. […] New synthesized compounds (except C-14 and C-43) alone induced an increase of brain mitochondria suspension turbidity. The mechanism of such effect needs additional investigations.

[3] = tested on: adrenergic receptors α1D, α2A, α2B; serotonin receptor 5-HT6; dopamine receptor D2L; assay: Classification of compounds (Type 1-4) from receptor binding and neurite outgrowth
Excerpt: Compounds of the invention that inhibit binding of a ligand to adrenergic receptors α1D, α2A, α2B and serotonin receptor 5-HT6 by at least about 80% as determined in a suitable assay such as the assays described herein can be classified as Type 1 compounds. […] In one variation, binding of a ligand to serotonin receptor 5-HT7 is at least about 80%. […] Weak inhibition of binding of a ligand to the histamine H1 receptor is permitted as agonists of this receptor have been implicated in stimulating memory as well as weight gain. In one variation, binding to histamine receptor H1 is inhibited by less than about 80%. […] Compounds that inhibit binding of a ligand to the dopamine D2L receptor by at least about 80% as determined in a suitable assay such as the assay described herein can be classified as Type 2 compounds.
In one variation, Type 1 compounds further inhibit binding of a ligand to dopamine receptor D2L by less than about 80% as determined in a suitable assay known in the art such as the assay described herein. […] In one variation, binding of a ligand to serotonin receptor 5-HT7, 5-HT2A and/or 5-HT2C is inhibited by at least about 80% as determined in a suitable assay such as the assays described herein. […] In one variation, binding of a ligand to histamine receptor H1 and/or H2 is inhibited by less than about 80% as determined by a suitable assay known in the art such as the assays described herein.
In one variation, biding to serotonin receptor 5-HT2A is inhibited by at least about 80% as determined in a suitable assay know in the art such as the assay described herein.

Compound	Influence on memory in the test recognition new localization of known object ([1]; Dose of Compound 0.05 mg/kg)	Influence on memory in the test recognition new localization of known object ([1]; Dose of Compound 0.1 mg/kg)	Influence on memory in the test recognition new localization of known object ([1]; Dose of Compound 0.5 mg/kg)	Influence on memory in the test recognition new localization of known object ([1]; Dose of Compound 1.0 mg/kg)	effect of the dose on exploration time / memory (in words) ([1]; mice, dose 0.05 mg/kg)	overall effect on memory (in words) ([1]; mice)	A540 increase in mitochondrial suspension after addition of 100 μM of compound [2] [rel.units]	IC50 [2] [µM]	compound type (classification by receptor binding profile and neurite outgrowth) [3]	also measured
Cc1ccc2c(c1)c1c(n2CCc2nc(-c3ccccc3)cs2)CCN(C)C1 [Compound C1-5]	−	+	−	+	no effect	stimulating effect on memory	30	18 ± 16		activity on memory compared with dimebon (in words) ([1]; comparison of effective doses): at a level dimebon; time exploring the object in a new location, % of the total time ([1]; mice, dose 0.1 mg/kg): 57.9±7.5%; time exploring the object in the known position, % of the total time ([1]; mice, dose 0.1 mg/kg): 42.1±7.5%; effect of the dose on exploration time / memory (in words) ([1]; mice, dose 0.5 mg/kg): disappearance of the stimulating effect on memory; time exploring the object in a new location, % of the total time ([1]; mice, dose 1 mg/kg): 57.4±8.4%; time exploring the object in the known position, % of the total time ([1]; mice, dose 1 mg/kg): 42.6±8.4%
CN1CCc2c(c3cc(Cl)ccc3n2CCc2noc(-c3ccccc3)n2)C1 [Compound C4-6]	−	−	+	+	not effective	stimulated memory	28	6 ± 1.2		activity on memory: times weaker than dimebon ([1]; comparison of effective doses): approximately 5 times; effect of the dose on exploration time / memory (in words) ([1]; mice, dose 0.1 mg/kg): not effective; time exploring the object in a new location, % of the total time ([1]; mice, dose 0.5 mg/kg): 61.0±4.8%; time exploring the object in the known position, % of the total time ([1]; mice, dose 0.5 mg/kg): 39.0±4.8%; time exploring the object in a new location, % of the total time ([1]; mice, dose 1 mg/kg): 56.3±7.7%; time exploring the object in the known position, % of the total time ([1]; mice, dose 1 mg/kg): 43.7±7.7%
Cc1ccc(CCn2c3c(c4cc(Br)ccc42)CN(C)CC3)cn1 [Compound 487, 8-bromo-2-methyl-5-(2-(6-methylpyridin-3-yl)ethyl)-2,3,4,5-tetrahydro-1H-pyrido[4,3-b]indole]									Type one	
CN1CCc2c(c3ccccc3n2CCc2noc(-c3ccccc3)n2)C1 [Compound C4-1]	−	+	−	−			10	3.9 ± 1.6		
COc1ccc2c(c1)c1c(n2CCc2nc(-c3ccccc3)cs2)CCN(C)C1 [Compound C1-6]							1.5	12.7 ± 6.2		
CCOc1ccc(CCn2c3c(c4cc(C)ccc42)CN(C)CC3)cc1 [Compound 334, 5-[2-(4-Ethoxy-phenyl)-ethyl]-2,8-dimethyl-2,3,4,5-tetrahydro-1H-pyrido[4,3-b]indole]									Type one	
Cc1ccc2c(c1)c1c(n2CCc2noc(-c3ccccc3)n2)CCN(C)C1 [Compound C4-4]	−	+	+	+	no effect	activating effect on memory	14	6.7 ± 1.2		time after training for which the activating effect on memory is preserved ([1]; mice): about 48 hours; time exploring the object in a new location, % of the total time ([1]; mice, dose 0.1 mg/kg): 58.5±9.6%; time exploring the object in the known position, % of the total time ([1]; mice, dose 0.1 mg/kg): 41.5±9.6%; time exploring the object in a new location, % of the total time ([1]; mice, dose 0.5 mg/kg): 59.1±4.2%; time exploring the object in the known position, % of the total time ([1]; mice, dose 0.5 mg/kg): 40.9±4.2%
CN1CCc2c(c3cc(F)ccc3n2CCc2nc(-c3ccccc3)cs2)C1 [Compound C1-7]							>30	28 ± 6		
CN1CCc2c(c3cc(I)ccc3n2CCc2ccccc2F)C1 [Compound 89, 5-(2-fluorophenethyl)-2,3,4,5-tetrahydro-8-iodo-2-methyl-1H-pyrido[4,3-b]indole]									Type one	
